Values after ≈ are worked out from the molar mass of the structure shown. Non-standard residues stand in square brackets, D forms with d. Residues, ends and D or L forms follow the SMILES beside them. No end group written: not given here. *: point of attachment. Biotin = O=C1N[C@H]2[C@H](CS[C@H]2CCCCC(=O)*)N1; βAla = NCCC(=O)O

As a reminder, the IC50 is the concentration at which inhibition is half-maximal. As usually defined, the solubility is the concentration that dissolves in the medium under given conditions. Higher therefore signals a readily soluble substance.

The target in data set [1] is EphA2 (Homo sapiens, UniProt P29317). The data set is described as follows: ELISA: inhibition of ephrin-A5 AP binding to immobilized EphA2 Fc. The arrangement: the immobilized EphA2 extracellular domain fused to the Fc portion of an antibody (EphA2 Fc). The following applies: average ± SE. As for the experimental part:
(FIG. 2A) Representative ELISAs comparing the ability of the peptides to inhibit binding of ephrin-A5 fused to alkaline phosphatase (ephrin-A5 AP) to the immobilized EphA2 extracellular domain fused to the Fc portion of an antibody (EphA2 Fc). The graphs show averages±SE from triplicate measurements from a representative experiment. IC50 values calculated from the fitted curves in each experiment are shown. All concentrations are nM and the 100 nM peptide concentration is outlined in red. (FIG. 2B) Ephrin-A5 AP binding to the indicated EphA receptors and ephrin-B2 AP binding to the indicated EphB receptors in the presence of the indicated peptide, normalized to ephrin binding without peptide. The bars show averages±SE from triplicate measurements.

A short description of data set [2]: Peptide solubility in PBS/H2O.
Data set [3] addresses T1, EphA2 LBD (Homo sapiens, UniProt P29317).
T1 construct: EphA2 LBD (residues 28-200); made in house; host or cells: E. coli Origami 2 (DE3)
Kind of data set: Isothermal titration calorimetry (ITC) of peptide binding. The settings on record: 1 mM biotin. How it is done: For ITC, all peptides were dissolved in DMSO and both the EphA2 LBD and the peptides were diluted to obtain a final buffer containing 9.5 mM HEPES, pH 7.9, 95 mM NaCl, and 5% DMSO. […] Two-microliter aliquots of a peptide solution were injected into the cell containing 205 μL EphA2 LBD. 200-400 μM peptides were titrated into 20-40 μM EphA2 LBD. Experimental data were analyzed using the Origin software package (Microcal). The integrated values for the reaction heats were normalized to the amount of injected peptide after blank subtraction.
On the technique in general: ITC needs no label: the signal is the heat of the interaction.

Setting [4] is: PBS, Solubility in PBS (mg/ml), PBS (first figure of cell).
[5] abbreviates: water, Solubility in H2O (mg/ml), H2O (second figure of cell).

Chain of EphA2 (P29317 24-537 limits assumed, species assumed): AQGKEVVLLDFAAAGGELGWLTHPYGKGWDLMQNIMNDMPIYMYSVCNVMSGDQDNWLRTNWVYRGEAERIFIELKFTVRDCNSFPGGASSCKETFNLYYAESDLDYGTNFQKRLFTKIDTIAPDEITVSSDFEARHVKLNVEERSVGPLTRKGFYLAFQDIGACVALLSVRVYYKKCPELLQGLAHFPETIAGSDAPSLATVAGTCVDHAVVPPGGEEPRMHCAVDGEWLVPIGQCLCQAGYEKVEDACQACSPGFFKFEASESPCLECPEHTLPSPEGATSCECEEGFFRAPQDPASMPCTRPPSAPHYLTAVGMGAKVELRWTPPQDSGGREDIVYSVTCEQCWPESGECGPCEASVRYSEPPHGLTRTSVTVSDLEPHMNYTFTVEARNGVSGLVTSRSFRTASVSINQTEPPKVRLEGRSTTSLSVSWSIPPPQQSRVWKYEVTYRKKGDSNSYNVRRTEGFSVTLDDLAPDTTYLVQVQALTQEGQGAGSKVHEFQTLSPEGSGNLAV
T1 sequence (P29317 28-200): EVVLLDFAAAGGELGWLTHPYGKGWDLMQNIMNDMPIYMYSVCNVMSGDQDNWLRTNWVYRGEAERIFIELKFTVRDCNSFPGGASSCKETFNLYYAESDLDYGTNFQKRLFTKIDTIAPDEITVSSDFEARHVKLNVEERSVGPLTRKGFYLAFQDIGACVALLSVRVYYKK

The molecule `CC(C)C[C@H](NC(=O)[C@H](Cc1c[nH]c2ccccc12)NC(=O)CCN)C(=O)N[C@@H](C)C(=O)N[C@@H](Cc1ccc(O)cc1)C(=O)N1CCC[C@H]1C(=O)N[C@@H](CC(=O)O)C(=O)N[C@@H](CO)C(=O)N[C@H](C(=O)N1CCC[C@H]1C(=O)N[C@@H](Cc1ccc(O)cc1)C(=O)NCC(=O)N[C@@H](CO)C(=O)N[C@@H](CCCCNC(=O)CCCC[C@@H]1SC[C@@H]2NC(=O)N[C@@H]21)C(=O)O)C(C)C` [βA-WLA-YGSK-bio] (H-[βAla]WLAYPDSVPYGSK(Biotin)-OH; N-terminus and C-terminus assumed) yielded an IC50 in data set [1] of 400 ± 70 nM.
Turning to `CC(C)C[C@H](NC(=O)[C@H](Cc1c[nH]c2ccccc12)NC(=O)CCN)C(=O)N[C@@H](C)C(=O)N[C@@H](Cc1ccc(O)cc1)C(=O)N1CCC[C@H]1C(=O)N[C@@H](CC(=O)O)C(=O)N[C@@H](CO)C(=O)N[C@H](C(=O)N1CCC[C@H]1C(=O)N[C@@H](Cc1ccc(O)cc1)C(=O)N[C@@H](CCCNC(=N)N)C(=O)O)C(C)C` [βA-WLA-YR] (HELM PEPTIDE1{[bAla].W.L.A.Y.P.D.S.V.P.Y.R}$$$$V2.0; N-terminus and C-terminus assumed), the solubility in data set [2] (setting [4]) and in data set [2] (setting [5]) was 5000 µg/mL (≈ 3.48 mM) each time. The molecule also came in with an IC50 in data set [1] of 390 ± 30 nM.
`CC(C)C[C@H](NC(=O)[C@H](Cc1c[nH]c2ccccc12)NC(=O)CCN)C(=O)N[C@@H](C)C(=O)N[C@@H](Cc1ccc(O)cc1)C(=O)N1CCC[C@H]1C(=O)N[C@@H](CC(=O)O)C(=O)N[C@@H](CO)C(=O)N[C@H](C(=O)N1CCC[C@H]1C(=O)N[C@@H](Cc1ccc(O)cc1)C(=O)N[C@@H](CCCCNC(=O)CCCC[C@@H]1SC[C@@H]2NC(=O)N[C@@H]21)C(=O)O)C(C)C` [βA-WLA-YK-bio] (H-[βAla]WLAYPDSVPYK(Biotin)-OH; N-terminus and C-terminus assumed) yielded an IC50 in data set [1] of 730 ± 90 nM.
The same measure, in the same setting: to `CC(C)C[C@H](NC(=O)[C@H](Cc1c[nH]c2ccccc12)NC(=O)CCN)C(=O)N[C@@H](C)C(=O)N[C@@H](Cc1ccc(O)cc1)C(=O)N1CCC[C@H]1C(=O)N[C@@H](CC(=O)O)C(=O)N[C@@H](CO)C(=O)N[C@H](C(=O)N1CCC[C@H]1C(=O)N[C@@H](Cc1ccc(O)cc1)C(=O)N[C@@H](CO)C(=O)N1CCC[C@H]1C(=O)N[C@@H](CCCCNC(=O)CCCC[C@@H]1SC[C@@H]2NC(=O)N[C@@H]21)C(=O)O)C(C)C` [βA-WLA-YSPK-bio] (H-[βAla]WLAYPDSVPYSPK(Biotin)-OH; N-terminus and C-terminus assumed) belongs 62 ± 3 nM.
As to `CSCC[C@H](NC(=O)[C@@H]1CCCN1C(=O)[C@@H](NC(=O)[C@H](CO)NC(=O)[C@H](CC(=O)O)NC(=O)[C@@H]1CCCN1C(=O)[C@H](Cc1ccc(O)cc1)NC(=O)[C@H](C)NC(=O)[C@H](CO)NC(=O)[C@@H](N)Cc1ccc(O)cc1)C(C)C)C(N)=O` [YSA1-10am], the solubility in data set [2] (setting [4]) and in data set [2] (setting [5]) was 10000 µg/mL (≈ 8.86 mM) throughout.
Consider `CSCC[C@H](NC(=O)[C@@H]1CCCN1C(=O)[C@@H](NC(=O)[C@H](CO)NC(=O)[C@H](CC(=O)O)NC(=O)[C@@H]1CCCN1C(=O)[C@H](Cc1ccc(O)cc1)NC(=O)[C@H](C)NC(=O)[C@H](CC(C)C)NC(=O)[C@H](Cc1c[nH]c2ccccc12)NC(=O)CCN)C(C)C)C(N)=O` [βA-WLAam] (HELM PEPTIDE1{[bAla].W.L.A.Y.P.D.S.V.P.M.[am]}$$$$V2.0; N-terminus assumed), for which the solubility in data set [2] (setting [4]) and in data set [2] (setting [5]) was 10000 µg/mL (≈ 8.01 mM) each time. In data set [1], this molecule had an IC50 of 840 ± 80 nM.
Turning to `CC(C)C[C@H](NC(=O)[C@H](Cc1c[nH]c2ccccc12)NC(=O)CCN)C(=O)N[C@@H](C)C(=O)N[C@@H](Cc1ccc(O)cc1)C(=O)N1CCC[C@H]1C(=O)N[C@@H](CC(=O)O)C(=O)N[C@@H](CO)C(=O)N[C@H](C(=O)N1CCC[C@H]1C(=O)N[C@@H](Cc1ccc(O)cc1)C(=O)N[C@@H](CO)C(=O)N[C@@H](CCCCN)C(=O)O)C(C)C` [βA-WLA-YSK] (HELM PEPTIDE1{[bAla].W.L.A.Y.P.D.S.V.P.Y.S.K}$$$$V2.0; N-terminus and C-terminus assumed), the results for the solubility in data set [2] (setting [4]) and in data set [2] (setting [5]) were 5000 µg/mL (≈ 3.34 mM) and 2000 µg/mL (≈ 1.34 mM), respectively. For the same molecule, the IC50 in data set [1] came to 380 ± 140 nM.
With `CC(C)C[C@H](NC(=O)[C@H](Cc1c[nH]c2ccccc12)NC(=O)[C@H](C)NC(=O)[C@@H](N)CCCCNC(=O)CCCC[C@@H]1SC[C@@H]2NC(=O)N[C@@H]21)C(=O)N[C@@H](C)C(=O)N[C@@H](Cc1ccc(O)cc1)C(=O)N1CCC[C@H]1C(=O)N[C@@H](CC(=O)O)C(=O)N[C@@H](CO)C(=O)N[C@H](C(=O)N1CCC[C@H]1C(=O)N[C@@H](Cc1ccc(O)cc1)C(=O)N[C@@H](CCCNC(=N)N)C(=O)N1CCC[C@H]1C(=O)N[C@@H](CCCCN)C(N)=O)C(C)C` [K-bioA-WLA-YRPKam], the solubility in data set [2] (H2O, Solubility in H2O (mg/ml), H2O (second figure of cell)) came out at 10000 µg/mL (≈ 4.96 mM); in data set [2] (setting [4]), 10000 µg/mL (≈ 4.96 mM).
Take `CC(C)C[C@H](NC(=O)[C@H](Cc1c[nH]c2ccccc12)NC(=O)CCN)C(=O)N[C@@H](C)C(=O)N[C@@H](Cc1ccc(O)cc1)C(=O)N1CCC[C@H]1C(=O)N[C@@H](CC(=O)O)C(=O)N[C@@H](CO)C(=O)N[C@H](C(=O)N1CCC[C@H]1C(=O)N[C@@H](Cc1ccc(O)cc1)C(=O)NCC(=O)N[C@@H](CO)C(=O)NCC(=O)N[C@@H](CCCCNC(=O)CCCC[C@@H]1SC[C@@H]2NC(=O)N[C@@H]21)C(=O)O)C(C)C` [βA-WLA-YGSGK-bio] (H-[βAla]WLAYPDSVPYGSGK(Biotin)-OH; N-terminus and C-terminus assumed): the solubility in data set [2] (setting [4]) and in data set [2] (setting [5]) was 5000 µg/mL (≈ 2.72 mM) throughout. Besides, in data set [1], the concentration for half-maximal inhibition (IC50) stood at 330 ± 40 nM.
For WLAYPDSVPM-NH2 [WLAam], the IC50 in data set [1] came to 1500 nM.
For `CC(C)C[C@H](NC(=O)[C@H](Cc1c[nH]c2ccccc12)NC(=O)CCN)C(=O)N[C@@H](C)C(=O)N[C@@H](Cc1ccc(O)cc1)C(=O)N1CCC[C@H]1C(=O)N[C@@H](CC(=O)O)C(=O)N[C@@H](CO)C(=O)N[C@H](C(=O)N1CCC[C@H]1C(=O)N[C@@H](Cc1ccc(O)cc1)C(N)=O)C(C)C` [βA-WLA-Yam] (HELM PEPTIDE1{[bAla].W.L.A.Y.P.D.S.V.P.Y.[am]}$$$$V2.0; N-terminus assumed), the concentration in solution in data set [2] (setting [5]) (solubility) was 5000 µg/mL (≈ 3.9 mM). The same molecule came in with a 50% inhibitory concentration (IC50) in data set [1] of 410 ± 50 nM.
Take `CSCC[C@H](NC(=O)[C@H](CCSC)NC(=O)[C@@H]1CCCN1C(=O)[C@@H](NC(=O)[C@H](CO)NC(=O)[C@H](CC(=O)O)NC(=O)[C@@H]1CCCN1C(=O)[C@H](Cc1ccc(O)cc1)NC(=O)[C@H](C)NC(=O)[C@H](CO)NC(=O)[C@@H](N)Cc1ccc(O)cc1)C(C)C)C(=O)N[C@@H](CO)C(=O)N[C@@H](CCCCNC(=O)CCCC[C@@H]1SC[C@@H]2NC(=O)N[C@@H]21)C(=O)O` [YSA-K-bio]: the solubility in data set [2] (setting [4]) and in data set [2] (setting [5]) was 10000 µg/mL (≈ 5.88 mM) in each case.
Turning to `CSCC[C@H](NC(=O)[C@H](CCSC)NC(=O)[C@@H]1CCCN1C(=O)[C@@H](NC(=O)[C@H](CO)NC(=O)[C@H](CC(=O)O)NC(=O)[C@@H]1CCCN1C(=O)[C@H](Cc1ccc(O)cc1)NC(=O)[C@H](C)NC(=O)[C@H](CO)NC(=O)[C@@H](N)Cc1ccc(O)cc1)C(C)C)C(=O)N[C@@H](CO)C(=O)NCC(=O)N[C@@H](CO)C(=O)NCC(=O)N[C@@H](CO)C(=O)N[C@@H](CCCCN)C(=O)O` [YSA-GSGSK], the solubility came out at 10000 µg/mL (≈ 5.67 mM) in data set [2] (setting [4]) and 5000 µg/mL (≈ 2.83 mM) in data set [2] (setting [5]). In data set [1], this molecule displayed an IC50 of 4500 nM.
`CC(C)C[C@H](NC(=O)[C@H](Cc1c[nH]c2ccccc12)NC(=O)[C@H](C)NC(=O)CNC(=O)[C@@H](N)CSCC(N)=O)C(=O)N[C@@H](C)C(=O)N[C@@H](Cc1ccc(O)cc1)C(=O)N1CCC[C@H]1C(=O)N[C@@H](CC(=O)O)C(=O)N[C@@H](CO)C(=O)N[C@H](C(=O)N1CCC[C@H]1C(=O)N[C@@H](Cc1ccc(O)cc1)C(=O)N[C@@H](CCCNC(=N)N)C(=O)N1CCC[C@H]1C(=O)N[C@@H](CCCCNC(=O)CCCC[C@@H]1SC[C@@H]2NC(=O)N[C@@H]21)C(=O)O)C(C)C` [CcamGA-WLA-YRPK-bio] came in with a solubility in data set [2] (setting [4]) of under 100 µg/mL.
With `O=C(O)CCCC[C@@H]1SC[C@@H]2NC(=O)N[C@@H]21` [biotin, reference compound], the “binding to the EphA2 LBD by ITC (in words)” value in data set [3] is “did not detect binding”.
On to `CC(C)C[C@H](NC(=O)[C@H](Cc1c[nH]c2ccccc12)NC(=O)CCN)C(=O)N[C@@H](C)C(=O)N[C@@H](Cc1ccc(O)cc1)C(=O)N1CCC[C@H]1C(=O)N[C@@H](CC(=O)O)C(=O)N[C@@H](CO)C(=O)N[C@H](C(=O)N1CCC[C@H]1C(=O)N[C@@H](Cc1ccc(O)cc1)C(=O)N[C@@H](CO)C(=O)N[C@@H](CCCCNC(=O)CCCC[C@@H]1SC[C@@H]2NC(=O)N[C@@H]21)C(=O)O)C(C)C` [βA-WLA-YSK-bio] (H-[βAla]WLAYPDSVPYSK(Biotin)-OH; N-terminus and C-terminus assumed), for which, in data set [2] (setting [4]), the solubility came out at 2000 µg/mL (≈ 1.16 mM).

The record behind these values is US12398179B2, “Nanomolar peptides and derivatives to differentially modulate ephrin receptors” (Sanford Burnham Prebys Medical Discovery Institute, priority 2019, dated 2025).
